Converted amounts (≈) assume the structure as drawn.
Columns and labels:
Assay type in all cases: functional
[1] = tested on: Bacillus subtilis; test: Antibacterial activity against Bacillus subtilis ATCC9372 incubated for 24 hrs by CLSI-based broth microdilution method
[2] = tested on: Escherichia coli; test: Antibacterial activity against Escherichia coli ATCC25922 incubated for 24 hrs by CLSI-based broth microdilution method; settings: ATCC 25922
[3] = tested on: Pseudomonas aeruginosa; test: Antibacterial activity against Pseudomonas aeruginosa ATCC27853 incubated for 24 hrs by CLSI-based broth microdilution method
[4] = tested on: Bacillus pumilus; test: Antibacterial activity against Bacillus pumilus CMCC63202 incubated for 24 hrs by CLSI-based broth microdilution method
[5] = tested on: Staphylococcus aureus; test: Antibacterial activity against methicillin-resistant Staphylococcus aureus ATCC43300 incubated for 24 hrs by CLSI-based broth microdilution method
[6] = tested on: Staphylococcus aureus; test: Antibacterial activity against Staphylococcus aureus ATCC25923 incubated for 24 hrs by CLSI-based broth microdilution method
[7] = tested on: Staphylococcus aureus; test: Antibacterial activity against penicillin-resistant Staphylococcus aureus incubated for 24 hrs by CLSI-based broth microdilution method

Compound | MIC [1] [µg/mL] | MIC [2] [µg/mL] | MIC [3] [µg/mL] | MIC [4] [µg/mL] | MIC [5] [µg/mL] | MIC [6] [µg/mL] | MIC [7] [µg/mL]
NC(=O)c1c(F)ccc(OCC2=NOC(c3ccc(Cl)c(Cl)c3)C2)c1F (stereo not drawn) | 16 (≈ 39.9 µM) | > 64 | > 64 | > 64 | > 64 | > 64 | > 64
CCOc1ccc(C2CC(COc3ccc(F)c(C(N)=O)c3F)=NO2)cc1 (stereo not drawn) | 16 (≈ 42.5 µM) | > 64 | > 64 | 64 (≈ 170 µM) | 64 (≈ 170 µM) | > 64 | > 64
CCc1ccc(C2CC(COc3ccc(F)c(C(N)=O)c3F)=NO2)cc1 (stereo not drawn) | 4 (≈ 11.1 µM) | > 64 | > 64 | 16 (≈ 44.4 µM) | 64 (≈ 178 µM) | 64 (≈ 178 µM) | > 64
NC(=O)c1c(F)ccc(OCC2CC(c3ccc(Cl)c(Cl)c3)=NO2)c1F (stereo not drawn) | 2 (≈ 4.99 µM) | > 64 | > 64 | > 64 | > 64 | > 64 | > 64
NC(=O)c1c(F)ccc(OCC2CC(c3ccc4c(c3)OCO4)=NO2)c1F (stereo not drawn) | 16 (≈ 42.5 µM) | > 64 | > 64 | 16 (≈ 42.5 µM) | 64 (≈ 170 µM) | 64 (≈ 170 µM) | 64 (≈ 170 µM)
Cc1ccc(C2=NOC(COc3ccc(F)c(C(N)=O)c3F)C2)cc1 (stereo not drawn) | 16 (≈ 46.2 µM) | > 64 | > 64 | 16 (≈ 46.2 µM) | 32 (≈ 92.4 µM) | 32 (≈ 92.4 µM) | > 64
Cc1ccc(C2CC(COc3ccc(F)c(C(N)=O)c3F)=NO2)cc1 (stereo not drawn) | 16 (≈ 46.2 µM) | > 64 | > 64 | 64 (≈ 185 µM) | > 64 | > 64 | > 64
NC(=O)c1c(F)ccc(OCC2CC(c3ccccc3Cl)=NO2)c1F (stereo not drawn) | 16 (≈ 43.6 µM) | > 64 | > 64 | 64 (≈ 175 µM) | > 64 | > 64 | > 64
CC(C)c1ccc(C2=NOC(COc3ccc(F)c(C(N)=O)c3F)C2)cc1 (stereo not drawn) | ≤ 0.125 | > 64 | > 64 | ≤ 0.125 | 4 (≈ 10.7 µM) | 4 (≈ 10.7 µM) | 16 (≈ 42.7 µM)
Cc1cccc(C2=NOC(COc3ccc(F)c(C(N)=O)c3F)C2)c1 (stereo not drawn) | 16 (≈ 46.2 µM) | > 64 | > 64 | 8 (≈ 23.1 µM) | 16 (≈ 46.2 µM) | 32 (≈ 92.4 µM) | 64 (≈ 185 µM)
CCCOc1cccc(C2=NOC(COc3ccc(F)c(C(N)=O)c3F)C2)c1 (stereo not drawn) | 4 (≈ 10.2 µM) | > 64 | > 64 | 2 (≈ 5.12 µM) | 16 (≈ 41 µM) | 16 (≈ 41 µM) | 32 (≈ 82 µM)
NC(=O)c1c(F)ccc(OCC2CC(c3ccc(Cl)cc3Cl)=NO2)c1F (stereo not drawn) | 4 (≈ 9.97 µM) | > 64 | > 64 | 2 (≈ 4.99 µM) | 32 (≈ 79.8 µM) | 16 (≈ 39.9 µM) | 32 (≈ 79.8 µM)
COc1ccccc1C1=NOC(COc2ccc(F)c(C(N)=O)c2F)C1 (stereo not drawn) | > 64 | > 64 | > 64 | > 64 | > 64 | > 64 | > 64
COc1cccc(C2CC(COc3ccc(F)c(C(N)=O)c3F)=NO2)c1 (stereo not drawn) | > 64 | > 64 | > 64 | > 64 | > 64 | > 64 | > 64
CCOc1cccc(C2=NOC(COc3ccc(F)c(C(N)=O)c3F)C2)c1 (stereo not drawn) | 4 (≈ 10.6 µM) | > 64 | > 64 | 8 (≈ 21.3 µM) | 32 (≈ 85 µM) | 32 (≈ 85 µM) | 32 (≈ 85 µM)
Cc1cccc(C2CC(COc3ccc(F)c(C(N)=O)c3F)=NO2)c1 (stereo not drawn) | 64 (≈ 185 µM) | > 64 | > 64 | > 64 | > 64 | > 64 | > 64
NC(=O)c1c(F)ccc(OCC2=NOC(c3ccc(Cl)cc3)C2)c1F (stereo not drawn) | 4 (≈ 10.9 µM) | > 64 | > 64 | 16 (≈ 43.6 µM) | 32 (≈ 87.3 µM) | 64 (≈ 175 µM) | 64 (≈ 175 µM)
NC(=O)c1c(F)ccc(OCC2CC(c3ccc(F)cc3)=NO2)c1F (stereo not drawn) | 8 (≈ 22.8 µM) | > 64 | > 64 | 32 (≈ 91.4 µM) | 64 (≈ 183 µM) | 64 (≈ 183 µM) | 64 (≈ 183 µM)
CCOc1cccc(C2CC(COc3ccc(F)c(C(N)=O)c3F)=NO2)c1 (stereo not drawn) | 64 (≈ 170 µM) | > 64 | > 64 | > 64 | > 64 | > 64 | > 64
CCc1ccc(C2=NOC(COc3ccc(F)c(C(N)=O)c3F)C2)cc1 (stereo not drawn) | 0.5 (≈ 1.39 µM) | > 64 | > 64 | 2 (≈ 5.55 µM) | 8 (≈ 22.2 µM) | 8 (≈ 22.2 µM) | 16 (≈ 44.4 µM)
CCCOc1ccc(C2CC(COc3ccc(F)c(C(N)=O)c3F)=NO2)cc1 (stereo not drawn) | 8 (≈ 20.5 µM) | > 64 | > 64 | 32 (≈ 82 µM) | 64 (≈ 164 µM) | > 64 | > 64
NC(=O)c1c(F)ccc(OCC2=NOC(c3ccccc3Cl)C2)c1F (stereo not drawn) | 16 (≈ 43.6 µM) | > 64 | > 64 | 32 (≈ 87.3 µM) | > 64 | > 64 | > 64
CCCCc1ccc(C2CC(COc3ccc(F)c(C(N)=O)c3F)=NO2)cc1 (stereo not drawn) | ≤ 0.125 | > 64 | > 64 | 0.5 (≈ 1.29 µM) | 4 (≈ 10.3 µM) | 8 (≈ 20.6 µM) | 4 (≈ 10.3 µM)
N#Cc1ccc(C2=NOC(COc3ccc(F)c(C(N)=O)c3F)C2)cc1 (stereo not drawn) | 32 (≈ 89.6 µM) | > 64 | > 64 | > 64 | > 64 | > 64 | > 64
CCCOc1ccc(C2=NOC(COc3ccc(F)c(C(N)=O)c3F)C2)cc1 (stereo not drawn) | 4 (≈ 10.2 µM) | > 64 | > 64 | 4 (≈ 10.2 µM) | > 64 | > 64 | > 64
NC(=O)c1c(F)ccc(OCC2CC(c3ccc(Br)cc3)=NO2)c1F (stereo not drawn) | 2 (≈ 4.86 µM) | > 64 | > 64 | 4 (≈ 9.73 µM) | 32 (≈ 77.8 µM) | 32 (≈ 77.8 µM) | 32 (≈ 77.8 µM)
CCCCCc1ccc(C2=NOC(COc3ccc(F)c(C(N)=O)c3F)C2)cc1 (stereo not drawn) | 0.5 (≈ 1.24 µM) | > 64 | > 64 | ≤ 0.125 | > 64 | > 64 | > 64
CCOc1ccccc1C1CC(COc2ccc(F)c(C(N)=O)c2F)=NO1 (stereo not drawn) | > 64 | > 64 | > 64 | > 64 | > 64 | > 64 | > 64
CN(C)c1ccc(C2=NOC(COc3ccc(F)c(C(N)=O)c3F)C2)cc1 (stereo not drawn) | 16 (≈ 42.6 µM) | > 64 | > 64 | 64 (≈ 170 µM) | > 64 | > 64 | > 64
